In patent US4061748A, “7-(α-(4 -Hydroxy-1,5-naphthyridine-3-carbonamido)-α-phenylacetamido) cephalosporin derivatives” (Sumitomo Chemical Company, Limited, priority 1975, dated 1977):
Converted amounts (≈) assume the structure as drawn.

Key:
[1] = tested on: Enterobacter aerogenes No. 75; assay: Minimum inhibitory concentration, nutrient broth dilution method; format: cell-based; conditions: Klebsiella aerogenes
Protocol: (§1) The minimum inhibitory concentrations obtained with the example compounds, Compound (A) and Compound (B), against the following organisms representing 6 genera are shown in Table 1.
(§2) MIC was determined by the nutrient broth dilution method.

[2] = tested on: Escherichia coli NIHJ; assay: as above; format: cell-based
Protocol: as §1, §2

[3] = tested on: Klebsiella pneumoniae PCI 602; assay: as above; format: cell-based; conditions: PCI602
Protocol: as §1, §2

[4] = tested on: Proteus mirabilis GN 2425; assay: as above; format: cell-based; conditions: GN2425
Protocol: as §1, §2

[5] = tested on: Pseudomonas aeruginosa T; assay: as above; format: cell-based
Protocol: as §1, §2

[6] = tested on: Serratia No. 72; assay: as above; format: cell-based
Protocol: as §1, §2

[7] = tested on: Escherichia coli No. 37; assay: Minimum inhibitory concentration, nutrient broth dilution method (Table 3); format: cell-based
Protocol: as §2

[8] = tested on: Serratia No. 75; assay: as above; format: cell-based
Protocol: as §2

[9] = Antibiotic serum concentrations in mice following subcutaneous administration (disc method bioassay); format: in vivo, ICR-SLC strain mice; conditions: mouse, sc, 50 mg/kg; for Cmax: read-out: Peak concentration
Protocol: The antibiotic serum concentrations of the six cephalosporins following subcutaneous administration at 50 mg/kg to ICR-SLC strain mice are shown in Table 2.
The bioassay was carried out according to the disc method using
Pseudomonas aeruginosa.

[10] = tested on: Escherichia coli No. 37; assay: Median protective dose against intraperitoneal infection in mice; format: in vivo, Escherichia coli; male ICR-SLC strain mice; conditions: sc; Escherichia coli No. 37, intraperitoneal infection; two subcutaneous treatments, 1 and 4 hours after infection; read-out: PD50
Description: (§3) The relative activities of the compounds of the present invention, Compound (A) and Compound (B) against various intraperitoneal infections in mice evaluated by mean median protective doses (subcutaneously administered) are shown in Table 3.
(§4) For each test, eight male ICR-SLC strain mice were used at each dose

[11] = tested on: Pseudomonas aeruginosa T; assay: as above; format: in vivo, Pseudomonas aeruginosa; male ICR-SLC strain mice; conditions: sc, two subcutaneous treatments, 1 and 4 hours after infection, read-out: PD50
Description: as §3, §4

[12] = tested on: Serratia No. 75; assay: as above; format: in vivo, Serratia; male ICR-SLC strain mice; conditions: sc; Serratia No. 75, intraperitoneal infection; two subcutaneous treatments, 1 and 4 hours after infection; read-out: PD50
Description: as §3, §4

[13] = tested on: Enterobacter aerogenes No. 75; assay: as above; format: in vivo, Enterobacter aerogenes; male ICR-SLC strain mice; conditions: Klebsiella aerogenes, sc; Enterobacter aerogenes No. 75, intraperitoneal infection; two subcutaneous treatments, 1 and 4 hours after infection; read-out: PD50
Description: as §3, §4

Row | Compound | MIC [1] [µg/mL] | MIC [2] [µg/mL] | MIC [3] [µg/mL] | MIC [4] [µg/mL] | MIC [5] [µg/mL] | MIC [6] [µg/mL] | MIC [7] [µg/mL] | MIC [8] [µg/mL] | Cmax [9] [ng/mL] | ED50 [10] [mg/kg] | ED50 [11] [mg/kg] | ED50 [12] [mg/kg] | ED50 [13] [mg/kg] | half-life [9] [min]
1 | CC(=O)OCC1=C(C(=O)O)N2C(=O)C(NC(=O)[C@H](NC(=O)c3cnc4ccccc4c3O)c3ccccc3)C2SC1 (stereo partly drawn) [Compound (A), sodium 7-[D-α-(4-hydroxyquinoline-3-carboxyamino)-α-phenylacetamido] cephalosporanate, reference compound] | 25 | 6.25 | 0.78 | 25 | 12.5 | 100 | 12.5 | 100 | < 900 | > 200 | > 100 | > 150 | 200 | 
2 | CC(=O)OCC1=C(C(=O)O)N2C(=O)C(NC(=O)[C@H](NC(=O)c3cnccc3O)c3ccccc3)C2SC1 (stereo partly drawn) [Compound (B), sodium 7-[D-α-(4-hydroxypyridine-3-carboxyamino)-α-phenylacetamido] cephalosporanate, reference compound] | 25 | 12.5 | 12.5 | 50 | 25 | > 200 | 25 | > 200 | 26000 | 170 | 92 | > 150 | 170 | 30
3 | CC(=O)OCC1=C(C(=O)O)N2C(=O)C(NC(=O)[C@H](NC(=O)c3cnc4cccnc4c3O)c3ccccc3)C2SC1 (stereo partly drawn) [Example 1, 7-[D-α-(4-Hydroxy-1,5-naphthyridine-3-carboxyamido)-α-phenylacetamido] cephalosporanic acid] | 6.25 (≈ 10.8 µM) | 3.13 (≈ 5.42 µM) | 1.56 (≈ 2.7 µM) | 12.5 (≈ 21.6 µM) | 6.25 (≈ 10.8 µM) | 50 (≈ 86.6 µM) | 6.25 (≈ 10.8 µM) | 50 (≈ 86.6 µM) | 44000 | 50 | 18 | 65 | 50 | 25
4 | Cc1nnc(SCC2=C(C(=O)O)N3C(=O)C(NC(=O)[C@H](NC(=O)c4cnc5cccnc5c4O)c4ccccc4)C3SC2)s1 (stereo partly drawn) [Example 2, 7-[D-α-(4-Hydroxy-1,5-naphthyridine-3-carboxyamido)-α-phenylacetamido]-3-(2-methyl-1,3,4-thiadiazole-5-yl)thiomethyl-3-cephem-4-carboxylicacid] | 3.13 (≈ 4.82 µM) | 1.56 (≈ 2.4 µM) | 0.78 (≈ 1.2 µM) | 12.5 (≈ 19.2 µM) | 6.25 (≈ 9.62 µM) | 12.5 (≈ 19.2 µM) | 6.25 (≈ 9.62 µM) | 12.5 (≈ 19.2 µM) | 38000 | 41 | 23 | 30 | 28 | 35
5 | Cn1nnnc1SCC1=C(C(=O)O)N2C(=O)C(NC(=O)[C@H](NC(=O)c3cnc4cccnc4c3O)c3ccccc3)C2SC1 (some centres unmarked) [Example 3] | 3.13 (≈ 4.94 µM) | 0.78 (≈ 1.23 µM) | 0.39 (≈ 0.615 µM) | 12.5 (≈ 19.7 µM) | 12.5 (≈ 19.7 µM) | 12.5 (≈ 19.7 µM) | 3.13 (≈ 4.94 µM) | 6.25 (≈ 9.86 µM) | 24000 | 28 | 28 | 25 | 25 | 25
6 | O=C(O)C1=C(CSc2cnn[nH]2)CSC2C(NC(=O)[C@H](NC(=O)c3cnc4cccnc4c3O)c3ccccc3)C(=O)N12 (stereo partly drawn) [Example 4, 7-[d-α-(4-hydroxy-1,5-naphthyridine-3-carboxyamido)-α-phenylacetamido]-3-(1,2,3-triazole-5-yl)thiomethyl-3-cephem-4-carboxylic acid] | 3.13 (≈ 5.06 µM) | 1.56 (≈ 2.52 µM) | 1.56 (≈ 2.52 µM) | 25 (≈ 40.4 µM) | 12.5 (≈ 20.2 µM) | 25 (≈ 40.4 µM) | 6.25 (≈ 10.1 µM) | 12.5 (≈ 20.2 µM) | 26000 | 45 | 30 | 30 | 30 | 30
